Test results published in article PMC6019134, “1,2,6-Thiadiazinones as Novel Narrow Spectrum Calcium/Calmodulin-Dependent Protein Kinase Kinase 2 (CaMKK2) Inhibitors” (Molecules : A Journal of Synthetic Chemistry and Natural …, 2018).
Where two headings read alike, the source gives them in different places.

Key:
Format in all cases: binding
STK38LA = molecular target: T1, STK38LA (Homo sapiens, UniProt Q9Y2H1); experiment: DSF thermal shift, kinase panel; details: 10 μM compound
T1 construct: TEV-cleavable (cleaved yes); made in house; host or cells: E. coli
Outline: (§1)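 Compounds were screened at 10 µM by differential scanning fluorimetry against 1 µM purified kinase in buffered glycerol/NaCl with fluorescent dye. Melting curves, recorded during a 0.05 °C/s ramp to 95 °C, were fitted to a Boltzmann function to give dTm.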

STK3 = molecular target: T2, STK3 (Homo sapiens, UniProt Q13188); experiment: DSF thermal shift, kinase panel; details: 10 μM compound
T2 construct: purchased in-house (home-made panel, SGC-style construct names)
T2 sequence (Q13188 1-491): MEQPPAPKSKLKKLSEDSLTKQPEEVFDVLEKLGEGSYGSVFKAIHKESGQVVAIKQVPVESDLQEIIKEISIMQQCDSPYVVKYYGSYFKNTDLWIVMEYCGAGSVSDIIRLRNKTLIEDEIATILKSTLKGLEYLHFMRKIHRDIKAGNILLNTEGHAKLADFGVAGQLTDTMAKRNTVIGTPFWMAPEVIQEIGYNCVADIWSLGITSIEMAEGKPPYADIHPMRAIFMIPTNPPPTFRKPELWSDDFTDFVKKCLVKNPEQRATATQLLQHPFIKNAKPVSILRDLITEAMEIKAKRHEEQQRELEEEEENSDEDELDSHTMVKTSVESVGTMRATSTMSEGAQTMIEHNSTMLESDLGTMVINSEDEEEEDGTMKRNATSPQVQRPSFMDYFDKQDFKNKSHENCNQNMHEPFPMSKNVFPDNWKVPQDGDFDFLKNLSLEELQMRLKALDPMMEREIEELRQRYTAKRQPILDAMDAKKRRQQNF
Outline: as §1

CAMK1G = molecular target: T3, CAMK1G (Homo sapiens, UniProt Q96NX5); experiment: DSF thermal shift, kinase panel; details: 10 μM compound
T3 construct: purchased in-house (home-made panel, SGC-style construct names)
Outline: as §1

MAPK14B = molecular target: T4, MAPK14B (Homo sapiens, UniProt Q16539); experiment: DSF thermal shift, kinase panel; details: 10 μM compound
T4 construct: purchased in-house (home-made panel, SGC-style construct names)
Outline: as §1

CSNK2A1 = molecular target: T5, CSNK2A1 (Homo sapiens, UniProt P68400); experiment: DSF thermal shift, kinase panel; details: read-out: ΔTm
T5 construct: purchased in-house (home-made panel, SGC-style construct names)
Outline: as §1

CAMKK1 = molecular target: T6, CAMKK1 (Homo sapiens, UniProt Q8N5S9); experiment: DSF thermal shift, kinase panel; details: 10 μM compound
T6 construct: purchased in-house (home-made panel, SGC-style construct names)
Outline: as §1

[1] = molecular target: T7, CAMKK2 kinase domain (132–470) (Homo sapiens, UniProt Q96RR4); experiment: CaMKK2B TR-FRET tracer displacement assay; details: CaMKK2, displacement of tracer 236, average of 2 experiments
T7 construct: CAMKK2 kinase domain (132–470) was cloned in a pNIC-Bio2 vector; 10xHis tag followed by a TEV site (N, cleaved yes); made in house; host or cells: E. coli BL21(DE3)-R3-BirA
T7 sequence (Q96RR4 132-470): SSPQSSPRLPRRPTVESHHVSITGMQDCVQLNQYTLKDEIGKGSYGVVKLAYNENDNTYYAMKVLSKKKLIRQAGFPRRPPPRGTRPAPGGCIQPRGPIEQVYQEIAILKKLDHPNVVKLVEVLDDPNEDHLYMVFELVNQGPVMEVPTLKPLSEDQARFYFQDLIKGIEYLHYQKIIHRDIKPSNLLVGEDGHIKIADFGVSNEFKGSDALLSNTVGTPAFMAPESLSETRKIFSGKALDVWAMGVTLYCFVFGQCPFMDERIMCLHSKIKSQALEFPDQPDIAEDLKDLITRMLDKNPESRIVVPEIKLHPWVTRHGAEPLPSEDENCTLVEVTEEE
Excerpt: To more accurately determine the relative changes in potency of the TDZ analogues and to enable measurement of accurate IC50^’s, we developed a Time-Resolved Fluorescence Resonance Energy Transfer (TR-FRET) assay. The TR-FRET tracer displacement assays were generated using a protocol derived from the Lanthascreen binding assays (ThermoFisher Scientific, Waltham, MA, USA) [21].

T6 sequence (Q8N5S9 whole entry): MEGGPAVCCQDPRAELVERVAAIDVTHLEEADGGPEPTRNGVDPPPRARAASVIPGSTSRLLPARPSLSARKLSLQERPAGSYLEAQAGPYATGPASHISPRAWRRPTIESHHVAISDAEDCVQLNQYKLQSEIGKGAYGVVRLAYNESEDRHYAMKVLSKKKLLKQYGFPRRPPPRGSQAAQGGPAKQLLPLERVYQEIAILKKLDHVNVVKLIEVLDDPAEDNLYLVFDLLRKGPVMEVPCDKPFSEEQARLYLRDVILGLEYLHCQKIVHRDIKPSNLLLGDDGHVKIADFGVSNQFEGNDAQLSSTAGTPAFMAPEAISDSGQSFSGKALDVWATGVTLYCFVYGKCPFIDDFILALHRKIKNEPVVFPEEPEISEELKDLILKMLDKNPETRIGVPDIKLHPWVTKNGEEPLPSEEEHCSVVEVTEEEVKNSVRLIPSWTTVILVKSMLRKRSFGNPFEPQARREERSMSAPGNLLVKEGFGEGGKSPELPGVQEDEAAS
T4 sequence (Q16539 whole entry): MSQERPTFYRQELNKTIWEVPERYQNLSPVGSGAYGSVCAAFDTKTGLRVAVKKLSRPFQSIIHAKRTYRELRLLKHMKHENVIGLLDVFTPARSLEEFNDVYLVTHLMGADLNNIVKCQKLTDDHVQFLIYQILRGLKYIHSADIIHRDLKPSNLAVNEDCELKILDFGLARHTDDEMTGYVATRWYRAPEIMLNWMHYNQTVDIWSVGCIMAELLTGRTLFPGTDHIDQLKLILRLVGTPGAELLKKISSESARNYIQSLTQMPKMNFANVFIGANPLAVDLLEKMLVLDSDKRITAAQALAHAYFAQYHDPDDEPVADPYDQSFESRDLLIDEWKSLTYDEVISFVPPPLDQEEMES
T5 sequence (P68400 whole entry): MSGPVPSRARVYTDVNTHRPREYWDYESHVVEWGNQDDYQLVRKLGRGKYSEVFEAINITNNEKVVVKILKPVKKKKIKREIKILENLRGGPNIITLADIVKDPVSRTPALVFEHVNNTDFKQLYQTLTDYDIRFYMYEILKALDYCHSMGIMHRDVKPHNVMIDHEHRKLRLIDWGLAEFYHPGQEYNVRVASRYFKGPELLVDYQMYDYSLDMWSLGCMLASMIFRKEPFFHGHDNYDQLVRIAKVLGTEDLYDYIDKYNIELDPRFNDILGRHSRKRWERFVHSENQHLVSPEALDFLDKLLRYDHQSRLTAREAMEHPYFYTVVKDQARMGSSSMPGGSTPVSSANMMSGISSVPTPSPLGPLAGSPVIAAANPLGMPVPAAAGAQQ
T3 sequence (Q96NX5 whole entry): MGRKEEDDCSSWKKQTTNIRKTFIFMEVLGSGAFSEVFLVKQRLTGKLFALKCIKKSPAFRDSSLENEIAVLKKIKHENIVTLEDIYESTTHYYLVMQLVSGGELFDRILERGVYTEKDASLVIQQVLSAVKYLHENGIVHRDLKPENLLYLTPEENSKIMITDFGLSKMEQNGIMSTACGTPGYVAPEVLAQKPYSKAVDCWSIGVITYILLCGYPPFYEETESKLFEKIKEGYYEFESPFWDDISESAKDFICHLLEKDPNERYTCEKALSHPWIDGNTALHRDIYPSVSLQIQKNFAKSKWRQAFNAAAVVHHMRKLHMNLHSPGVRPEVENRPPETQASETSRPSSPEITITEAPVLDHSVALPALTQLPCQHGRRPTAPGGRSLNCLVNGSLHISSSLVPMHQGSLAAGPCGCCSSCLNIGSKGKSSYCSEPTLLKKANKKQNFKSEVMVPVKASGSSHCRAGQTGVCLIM
T1 sequence (Q9Y2H1 whole entry): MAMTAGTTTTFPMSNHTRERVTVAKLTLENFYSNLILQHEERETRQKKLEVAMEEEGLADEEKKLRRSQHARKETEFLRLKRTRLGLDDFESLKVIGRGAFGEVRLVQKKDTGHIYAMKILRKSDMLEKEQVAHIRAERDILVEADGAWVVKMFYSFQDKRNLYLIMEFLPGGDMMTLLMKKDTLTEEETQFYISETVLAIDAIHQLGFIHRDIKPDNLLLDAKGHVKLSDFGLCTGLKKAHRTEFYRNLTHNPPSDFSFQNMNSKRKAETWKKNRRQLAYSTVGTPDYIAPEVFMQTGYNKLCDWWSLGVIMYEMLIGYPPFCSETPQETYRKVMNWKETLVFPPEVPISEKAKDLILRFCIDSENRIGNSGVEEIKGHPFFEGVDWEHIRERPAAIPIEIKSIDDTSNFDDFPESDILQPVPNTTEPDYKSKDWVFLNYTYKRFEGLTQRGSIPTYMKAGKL

SMILES	ΔTm at 10 µM (STK38LA) [°C]	ΔTm at 10 µM (STK3) [°C]	ΔTm at 10 µM (CAMK1G) [°C]	ΔTm at 10 µM (MAPK14B) [°C]	ΔTm at 10 µM (CSNK2A1) [°C]	ΔTm at 10 µM (CAMKK1) [°C]	IC50 [1] [µM]	ΔTm at 10 µM (CSNK2A1; DSF, 10 μM compound) [°C]
Cc1ccc(Nc2nsnc(Nc3ccc(C(N)=O)cc3)c2=O)cc1O [Compound 2, 4-({5-[(3-Hydroxy-4-methylphenyl)amino]-4-oxo-4H-1,2,6-thiadiazin-3-yl}amino)benzamide]	0.4	2.1	3.3	0.6	-0.2	3.7	> 50	
CNC(=O)c1ccccc1Nc1nsnc(Nc2ccc(N3CCOCC3)cc2)c1=O [Compound 5, N-Methyl-2-({5-[(4-morpholinophenyl)amino]-4-oxo-4H-1,2,6-thiadiazin-3-yl}amino)benzamide]	0.3	-0.3	0.1	-0.3		-0.4		-0.4
Cc1ccc(Nc2nsnc(Nc3ccc4c(c3)CS(=O)(=O)C4)c2=O)cc1O [Compound 3, 3-[(2,2-Dioxido-1,3-dihydrobenzo[c]thiophen-5-yl)amino]-5-[(3-hydroxy-4-methylphenyl)amino]-4H-1,2,6-thiadiazin-4-one]	0.8	1.1	3	1		1.4	34	-0.6
Cc1ccc(Nc2nsnc(Nc3cccc(C(N)=O)c3)c2=O)cc1O [Compound 1, 3-({5-[(3-Hydroxy-4-methylphenyl)amino]-4-oxo-4H-1,2,6-thiadiazin-3-yl}amino)benzamide]	0.2	0.2	1.8	0		0	> 50	-0.9
CNC(=O)c1ccccc1Nc1nsnc(Nc2cccc(CS(C)(=O)=O)c2)c1=O [Compound 4, N-Methyl-2-([5-({3-[(methylsulfonyl)methyl]phenyl}amino)-4-oxo-4H-1,2,6-thiadiazin-3-yl]-amino}-benzamide]	0.4	-0.4	0.2	-0.2		-0.4		-0.4
